Values quoted from earlier work in patent US20040242457A1, “Use of anti-glaucoma drugs to treat visual defects associated with the use of a GABAergic agent” (priority 2003, published 2004).

Conditions: reports from the literature

In the case of `C=CC(N)CCC(=O)O` (racemic) [GVG, 4-amino-hex-5-enoic acid], the “patients treated with GVG who develop visual field defects (VFDs)” value is listed as 25-50%.
